Patent US20120029187A1, “HALOALKYLSULFONANILIDE DERIVATIVE” (Nissan Chemical Industries, Ltd., priority 2009, published 2012)

What was measured:
Assay type in all cases: in vivo
posumbu knotweed [1] = assay: Test Example 3: herbicidal effects in soil treatment; settings: dose 6.3 g/a
How it was run: (§1)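 Seeds were sown in sterilized diluvial soil and covered with about 1.5 cm of soil. Compounds, formulated as emulsifiable concentrates and diluted with water, were sprayed evenly over the soil surface at set doses in g/a. Herbicidal effect was scored on a rating scale three weeks later.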

velvetleaf [2] = assay: as above; settings: dose 6.3 g/a
How it was run: as §1

water foxtail [3] = assay: as above; settings: dose 6.3 g/a
How it was run: as §1

common ragweed [4] = assay: as above; settings: dose 6.3 g/a
How it was run: as §1

giant foxtail [5] = assay: as above; settings: dose 6.3 g/a
How it was run: as §1

redroot pigweed [6] = assay: as above; settings: dose 6.3 g/a
How it was run: as §1

barnyardgrass [7] = assay: as above; settings: dose 6.3 g/a
How it was run: as §1

common lambsquater [8] = assay: as above; settings: dose 6.3 g/a
How it was run: as §1

common chickweed [9] = assay: as above; settings: dose 6.3 g/a
How it was run: as §1

wild oat [10] = assay: as above; settings: dose 6.3 g/a
How it was run: as §1

large crabgrass [11] = assay: as above; settings: dose 6.3 g/a
How it was run: as §1

Italian ryegrass [12] = assay: as above; settings: dose 6.3 g/a
How it was run: as §1

ducksalad [13] = assay: Test Example 1: herbicidal effects in preemergence treatment under submerged conditions; settings: dose 2.52 g/a
How it was run: (§2)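 Submerged conditions, 4 cm water over alluvial soil. Weeds sown and 2.5-leaf rice transplanted; compound applied preemergence to water surface, doses in g per are. Greenhouse, 25 to 30° C., three weeks, then 0–5 mortality rating.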

barnyardgrass [14] = assay: as above; settings: dose 2.52 g/a
How it was run: as §2

bulrush [15] = assay: as above; settings: dose 2.52 g/a
How it was run: as §2

ducksalad [16] = assay: Test Example 2: herbicidal effects during the vegetation period under submerged conditions; settings: treatment during the vegetation period under submerged conditions; dose 2.52 g/a
How it was run: (§3)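 Barnyardgrass, bulrush and ducksalad were co-sown in alluvial soil flooded to 4 cm and grown in a greenhouse at 25 to 30° C. At the 1- or 2-leaf stage, water-diluted emulsifiable concentrates went onto the water surface at set doses (g/a). Herbicidal effect was scored three weeks later on a graded scale.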

barnyardgrass [17] = assay: as above; settings: treatment during the vegetation period under submerged conditions; dose 2.52 g/a
How it was run: as §3

bulrush [18] = assay: as above; settings: treatment during the vegetation period under submerged conditions; dose 2.52 g/a
How it was run: as §3

transplanted rice = assay: Test Example 1: preemergence treatment under submerged conditions, effect on crop; settings: dose 2.52 g/a
How it was run: as §2

posumbu knotweed [19] = assay: Test Example 4: herbicidal effect in foliage treatment; settings: dose 6.3 g/a, three weeks after application
How it was run: (§4)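 Sowing in sterilized diluvial soil, ~1.5 cm cover; growth 14 d, 25–30° C greenhouse; foliar spray of water-diluted EC at predetermined g/a; scoring 3 wk later on graded scale.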

velvetleaf [20] = assay: as above; settings: dose 6.3 g/a, three weeks after application
How it was run: as §4

water foxtail [21] = assay: as above; settings: dose 6.3 g/a, three weeks after application
How it was run: as §4

common ragweed [22] = assay: as above; settings: dose 6.3 g/a, three weeks after application
How it was run: as §4

giant foxtail [23] = assay: as above; settings: dose 6.3 g/a, three weeks after application
How it was run: as §4

redroot pigweed [24] = assay: as above; settings: dose 6.3 g/a, three weeks after application
How it was run: as §4

barnyardgrass [25] = assay: as above; settings: dose 6.3 g/a, three weeks after application
How it was run: as §4

common lambsquater [26] = assay: as above; settings: dose 6.3 g/a, three weeks after application
How it was run: as §4

common chickweed [27] = assay: as above; settings: dose 6.3 g/a, three weeks after application
How it was run: as §4

wild oat [28] = assay: as above; settings: dose 6.3 g/a, three weeks after application
How it was run: as §4

beadstraw = assay: as above; settings: dose 6.3 g/a, three weeks after application
How it was run: as §4

large crabgrass [29] = assay: as above; settings: dose 6.3 g/a, three weeks after application
How it was run: as §4

Italian ryegrass [30] = assay: as above; settings: dose 6.3 g/a, three weeks after application
How it was run: as §4

## CCOC(=O)N(c1ccccc1CN1CCOCC1=O)S(=O)(=O)C(F)(F)F [Compound I-2, 4-[2-(N-ethoxycarbonyl-N-trifluoromethanesulfonyl)aminobenzyl]-1,4-oxazinan-3-one]
Posumbu knotweed [1]
  M: posumbu knotweed, herbicidal effect (evaluation scale 0-5): 5 (mortality of 90% or above (nearly complete death))
Velvetleaf [2]
  I: velvetleaf, herbicidal effect (evaluation scale 0-5): 5 (mortality of 90% or above (nearly complete death))
Water foxtail [3]
  G: water foxtail, herbicidal effect (evaluation scale 0-5): 5 (mortality of 90% or above (nearly complete death))
Common ragweed [4]
  J: common ragweed, herbicidal effect (evaluation scale 0-5): 5 (mortality of 90% or above (nearly complete death))
Giant foxtail [5]
  E: giant foxtail, herbicidal effect (evaluation scale 0-5): 5 (mortality of 90% or above (nearly complete death))
Redroot pigweed [6]
  K: redroot pigweed, herbicidal effect (evaluation scale 0-5): 5 (mortality of 90% or above (nearly complete death))
Barnyardgrass [7]
  A: barnyardgrass, herbicidal effect (evaluation scale 0-5): 5 (mortality of 90% or above (nearly complete death))
Common lambsquater [8]
  L: common lambsquater, herbicidal effect (evaluation scale 0-5): 5 (mortality of 90% or above (nearly complete death))
Common chickweed [9]
  N: common chickweed, herbicidal effect (evaluation scale 0-5): 5 (mortality of 90% or above (nearly complete death))
Wild oat [10]
  F: wild oat, herbicidal effect (evaluation scale 0-5): 3 (mortality of at least 40% and less than 70%)
Large crabgrass [11]
  D: large crabgrass, herbicidal effect (evaluation scale 0-5): 5 (mortality of 90% or above (nearly complete death))
Italian ryegrass [12]
  H: Italian ryegrass, herbicidal effect (evaluation scale 0-5): 5 (mortality of 90% or above (nearly complete death))
Ducksalad [13]
  C: ducksalad, herbicidal effect (evaluation scale 0-5): 5 (mortality of 90% or above (nearly complete death))
Barnyardgrass [14]
  A: barnyardgrass, herbicidal effect (evaluation scale 0-5): 5 (mortality of 90% or above (nearly complete death))
Bulrush [15]
  B: bulrush, herbicidal effect (evaluation scale 0-5): 5 (mortality of 90% or above (nearly complete death))
Ducksalad [16]
  C: ducksalad, herbicidal effect (evaluation scale 0-5): 5 (mortality of 90% or above (nearly complete death))
Barnyardgrass [17]
  A: barnyardgrass, herbicidal effect (evaluation scale 0-5): 5 (mortality of 90% or above (nearly complete death))
Bulrush [18]
  B: bulrush, herbicidal effect (evaluation scale 0-5): 5 (mortality of 90% or above (nearly complete death))
Transplanted rice
  a: transplanted rice, effect on crop (evaluation scale 0-5): 1 (mortality of at least 5% and less than 20%)
Posumbu knotweed [19]
  M: posumbu knotweed, herbicidal effect: 4 (mortality of at least 70% and less than 90%)
Velvetleaf [20]
  I: velvetleaf, herbicidal effect: 5 (mortality of 90% or above (nearly complete death))
Water foxtail [21]
  G: water foxtail, herbicidal effect: 5 (mortality of 90% or above (nearly complete death))
Common ragweed [22]
  J: common ragweed, herbicidal effect: 3 (mortality of at least 40% and less than 70%)
Giant foxtail [23]
  E: giant foxtail, herbicidal effect: 5 (mortality of 90% or above (nearly complete death))
Redroot pigweed [24]
  K: redroot pigweed, herbicidal effect: 3 (mortality of at least 40% and less than 70%)
Barnyardgrass [25]
  A: barnyardgrass, herbicidal effect: 5 (mortality of 90% or above (nearly complete death))
Common lambsquater [26]
  L: common lambsquater, herbicidal effect: 4 (mortality of at least 70% and less than 90%)
Common chickweed [27]
  N: common chickweed, herbicidal effect: 4 (mortality of at least 70% and less than 90%)
Wild oat [28]
  F: wild oat, herbicidal effect: 3 (mortality of at least 40% and less than 70%)
beadstraw
  O: beadstraw, herbicidal effect: 5 (mortality of 90% or above (nearly complete death))
Large crabgrass [29]
  D: large crabgrass, herbicidal effect: 5 (mortality of 90% or above (nearly complete death))
Italian ryegrass [30]
  H: Italian ryegrass, herbicidal effect: 4 (mortality of at least 70% and less than 90%)
